In PubChem BioAssay (NCI):
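48-hour exposure; five concentrations; linearly interpolated endpoints. GI50 marks 50% less growth. TGI marks complete inhibition of growth.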

Tests used:
Test in all cases: growth of human tumour cells (NCI), 48 h
[1] = tested on: HOP-92 NSCLC
[2] = tested on: SF-295 CNS
[3] = tested on: NCI-H522 lung
[4] = tested on: UACC-257 melanoma
[5] = tested on: HCC-2998 colon
[6] = tested on: SW-620 colon
[7] = tested on: NCI-H226 lung
[8] = tested on: CCRF-CEM leukemia
[9] = tested on: COLO 205 colon
[10] = tested on: M14 melanoma

| Compound | GI50 [1] | TGI [1] | GI50 [2] | TGI [2] | GI50 [3] | TGI [3] | GI50 [4] | TGI [4] | GI50 [5] | TGI [5] | GI50 [6] | TGI [6] | GI50 [7] | TGI [7] | GI50 [8] | TGI [8] | GI50 [9] | TGI [9] | GI50 [10] | TGI [10] |
| --- | --- | --- | --- | --- | --- | --- | --- | --- | --- | --- | --- | --- | --- | --- | --- | --- | --- | --- | --- | --- |
| CCCCCn1c(=N)n(CC(O)COc2cccc(C)c2)c2ccccc21 (stereo not given) | 2.74 µM | 14.8 µM | 5.62 µM | 22.8 µM | 5.7 µM | 20 µM | 3.36 µM | 12 µM | 2.1 µM | 3.98 µM | 4.26 µM | 18.3 µM | 10.3 µM | 28 µM | 3.12 µM | 15.2 µM | 1.93 µM | 3.62 µM | 3.26 µM | 12.3 µM |
| CC(=O)NC(CCCNCc1ccccc1)C(=O)NCc1ccccc1 (stereo not given) | – | > 100 µM | – | > 100 µM | – | > 100 µM | – | > 100 µM | – | > 100 µM | – | > 100 µM | – | > 100 µM | – | > 100 µM | – | > 100 µM | – | > 100 µM |
| CNS(=O)(=O)NN(C)S(=O)(=O)c1ccc(F)cc1 | – | > 100 µM | – | > 100 µM | – | > 100 µM | – | > 100 µM | – | > 100 µM | – | > 100 µM | – | > 100 µM | – | > 100 µM | – | > 100 µM | – | > 100 µM |
| COc1cccc(NC(=O)CC(=O)N2N=C(N(CCC#N)c3ccc(Cl)cc3)CC2c2ccccc2)c1 (stereo not given) | – | > 100 µM | – | > 100 µM | – | > 100 µM | – | > 100 µM | – | > 100 µM | – | > 100 µM | – | > 100 µM | – | > 100 µM | – | > 100 µM | – | > 100 µM |
| Cc1ccc(C(=O)O/N=C2/CCC/C2=C\c2ccccc2)cc1 | – | > 100 µM | – | > 100 µM | – | > 100 µM | – | > 100 µM | – | > 100 µM | – | > 100 µM | – | > 100 µM | – | > 100 µM | – | > 100 µM | – | > 100 µM |
| CN(C(=O)C12C3C4C5C3C1(C(=O)O)C5C42)C(C)(C)C (stereo not given) | – | > 100 µM | – | > 100 µM | – | > 100 µM | – | > 100 µM | – | > 100 µM | – | 60.8 µM | – | > 100 µM | – | > 100 µM | – | 72.3 µM | – | > 100 µM |
| O=C([O-])c1ccccc1Nc1ccccn1.O=C([O-])c1ccccc1Nc1ccccn1.[Ni+2] | 37.1 µM | 92.8 µM | > 100 µM | > 100 µM | > 100 µM | > 100 µM | > 100 µM | > 100 µM | > 100 µM | > 100 µM | > 100 µM | > 100 µM | 33.9 µM | > 100 µM | > 100 µM | > 100 µM | > 100 µM | > 100 µM | > 100 µM | > 100 µM |
| Cc1ccc(-c2c(N)[n+]([O-])c3ccccc3[n+]2[O-])cc1 | – | > 100 µM | – | 45.1 µM | – | 3.21 µM | – | 23.5 µM | – | 30.1 µM | – | 23.3 µM | – | 39.6 µM | – | > 100 µM | – | 34.7 µM | – | 25.3 µM |
| COC1(C(=O)N[C@@H](C)c2ccc(-n3cc(F)cn3)nc2)CCC(c2nc(C)cc(Nc3cc(C)[nH]n3)n2)CC1 (stereo not given in full) | 0.481 µM | 2.58 µM | 1.17 µM | 3.95 µM | 2.26 µM | 16.7 µM | 10.9 µM | 26.5 µM | 11.1 µM | 23.3 µM | 2.32 µM | 24.2 µM | 0.222 µM | 11.7 µM | 11 µM | > 100 µM | 3.83 µM | 23.7 µM | 3.03 µM | 17.7 µM |
